Results: US9029325B2, “Amylin analogues and pharmaceutical compositions thereof” (Novo Nordisk A/S, priority 2011, dated 2015)
Starred links: 1 amine or outer side, 2 acyl side, 3 side chain; linkers in the order of their positions; H or OH if unused. Positions of bridges follow the written chain, without caps; N, C: chain ends. Non-standard residues stand in square brackets, D forms with d. Residues, ends and D or L forms follow the SMILES beside them. Groups on a side chain read outwards from the residue. *: point of attachment. C20 diacid = O=C(O)CCCCCCCCCCCCCCCCCCC(=O)*; C18 diacid = O=C(O)CCCCCCCCCCCCCCCCC(=O)*; γGlu = O=C(O)[C@H](CCC(=O)[*:2])N[*:1]; Orn = NCCC[C@H](N)C(=O)O; AEEA = NCCOCCOCC(=O)O

Columns and labels:
[1] = Assay (III) ThT fibrillation assay for physical stability; format: physicochemical; conditions: for Th T pH 4.0 lag time (h): 37° C., orbital shaking 960 rpm; for ThT pH 4.0 lag time: Table 9
Description: Low physical stability of a polypeptide may lead to amyloid fibril formation, which is observed as well-ordered, thread-like macromolecular structures in the sample eventually resulting in gel formation. This has traditionally been measured by visual inspection of the sample. However, that kind of measurement is very subjective and depending on the observer. Therefore, the application of a small molecule indicator probe is much more advantageous. Thioflavin T (ThT) is such a probe and has a distinct fluorescence signature when binding to fibrils [Naiki et al. (1989) Anal. Biochem. 177, 244-249; LeVine (1999) Methods. Enzymol. […], 274-284].
The time course for fibril formation can be described by a sigmoidal curve with the following expression [Nielsen et al. (2001) Biochemistry 40, 6036-6046]:
[formula] Here, F is the ThT fluorescence at the time t. The constant t0 is the time needed to reach 50% of maximum fluorescence. The two important parameters describing fibril formation are the lag-time calculated by t0−2T and the apparent rate constant kapp=1/τ.
Few of those intermediates nucleate to form a template onto which further intermediates may assembly and the fibrillation proceeds. The lag-time corresponds to the interval in which the critical mass of nucleus is built up and the apparent rate constant is the rate with which the fibril itself is formed.
Samples were prepared freshly before each assay. Each sample composition is described in each example. The pH of the sample was adjusted to the desired value using appropriate amounts of concentrated NaOH and HClO4 or HCl. Thioflavin T was added to the samples from a stock solution in H2O to a final concentration of 1 μM.
Sample aliquots of 200 μl were placed in a 96 well microtiter plate (Packard OptiPlate™-96, white polystyrene). Usually, four or eight replica of each sample (corresponding to one test condition) were placed in one column of wells. The plate was sealed with Scotch Pad (Qiagen).
Incubation at given temperature, shaking and measurement of the ThT fluorescence emission were done in a Fluoroskan Ascent FL fluorescence platereader or Varioskan platereader (Thermo Labsystems). The temperature was adjusted to 37° C. The orbital shaking was adjusted to 960 rpm with an amplitude of 1 mm in all the presented data. Fluorescence measurement was done using excitation through a 444 nm filter and measurement of emission through a 485 nm filter.
Each run was initiated by incubating the plate at the assay temperature for 10 min. The plate was measured every 20 minutes for a desired period of time. Between each measurement, the plate was shaken and heated as described.
The measurement points were saved in Microsoft Excel format for further processing and curve drawing and fitting was performed using GraphPad Prism. The background emission from ThT in the absence of fibrils was negligible. The data points are typically a mean of four or eight samples and shown with standard deviation error bars. Only data obtained in the same experiment (i.e. samples on the same plate) are presented in the same graph ensuring a relative measure of fibrillation […].
The data set may be fitted to Eq. (1). However, since full sigmodial curves in this case are not always achieved during the measurement time, the degree of fibrillation is expressed as ThT fluorescence tabulated as the mean of the samples and shown with the standard deviation at various time points.
The polypeptide concentration in each of the tested formulations were measured both before application in the ThT fibrillation assay (“Initial”) and after completion of the ThT fibrillation (“After ThT assay”). Concentrations were determined by reverse HPLC methods using a pramlintide standard as a reference. Before measurement after completion 150 μl was collected from each of the replica and transferred to an Eppendorf tube. These were centrifuged at 30000 G for 40 mins. […]

[2] = Assay (I) efficacy testing on appetite (food intake), ad libitum fed rat model; format: in vivo, Sprague Dawley (SD) rats; conditions: 3 nmol/kg
Outline: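 Ad libitum fed SD rats (200-250 g) on a reversed light cycle, housed individually, received a single 0.01-3 mg/kg dose ip, po or sc just before lights-off. Individual food intake recorded hourly for 7 h, then at 24 h and sometimes 48 h, versus vehicle; Grubbs outliers excluded.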

Th T pH 4.0 lag time (h) [1]	ThT pH 4.0 lag time [1]	Structure (SMILES)	Food intake reduction 0-24 h 3 nmol/kg (%) [2]	Food intake reduction 24-48 h 3 nmol/kg (%) [2]
>45 h	>45 hr	CC[C@H](C)[C@H](NC(=O)[C@@H]1CCCN1C(=O)CNC(=O)[C@H](Cc1ccccc1)NC(=O)[C@H](CC(N)=O)NC(=O)[C@H](CC(N)=O)NC(=O)[C@H](CO)NC(=O)[C@H](CO)NC(=O)[C@H](Cc1c[nH]cn1)NC(=O)[C@H](CCCNC(=N)N)NC(=O)[C@H](CC(C)C)NC(=O)[C@H](Cc1ccccc1)NC(=O)[C@H](CCC(=O)O)NC(=O)[C@H](C)NC(=O)[C@H](CC(C)C)NC(=O)[C@H](CCCNC(=N)N)NC(=O)[C@H](CCC(N)=O)NC(=O)[C@@H](NC(=O)[C@H](C)NC(=O)[C@@H]1CSSC[C@H](NC(=O)CNC(=O)CC[C@H](NC(=O)CCCCCCCCCCCCCCCCCCC(=O)O)C(=O)O)C(=O)N[C@@H](CC(N)=O)C(=O)N[C@@H]([C@@H](C)O)C(=O)N[C@@H](C)C(=O)N[C@@H]([C@@H](C)O)C(=O)N1)[C@@H](C)O)C(=O)N[C@@H](CC(C)C)C(=O)N1CCC[C@H]1C(=O)N1CCC[C@H]1C(=O)N[C@H](C(=O)N[C@@H](CC(N)=O)C(=O)N[C@H](C(=O)NCC(=O)N[C@@H](CO)C(=O)N[C@@H](CC(N)=O)C(=O)N[C@H](C(=O)N1CCC[C@H]1C(N)=O)[C@@H](C)O)C(C)C)[C@@H](C)O [Example 88, N-alpha-[(S)-4-Carboxy-4-(19-carboxynonadecanoylamino)butyryl]-[Gly1, Glu14, Arg17, Pro37]-pramlintide] ({C20 diacid-γGlu}-GCNTATCATQRLAEFLRHSSNNFGPILPPTNVGSNTP-NH2; disulfide 2-7 (inferred); C-terminus assumed)		
>45 h	>45 hr	CC[C@H](C)[C@H](NC(=O)[C@@H]1CCCN1C(=O)CNC(=O)[C@H](Cc1ccccc1)NC(=O)[C@H](CC(N)=O)NC(=O)[C@H](CC(N)=O)NC(=O)[C@H](CO)NC(=O)[C@H](CO)NC(=O)[C@H](Cc1c[nH]cn1)NC(=O)[C@H](CCCNC(=N)N)NC(=O)[C@H](CC(C)C)NC(=O)[C@H](Cc1ccccc1)NC(=O)[C@H](CCC(=O)O)NC(=O)[C@H](C)NC(=O)[C@H](CC(C)C)NC(=O)[C@H](CCCNC(=N)N)NC(=O)[C@H](CCC(N)=O)NC(=O)[C@@H](NC(=O)[C@H](C)NC(=O)[C@@H]1CSSC[C@H](NC(=O)[C@H](Cc2c[nH]cn2)NC(=O)CC[C@H](NC(=O)CCCCCCCCCCCCCCCCCCC(=O)O)C(=O)O)C(=O)N[C@@H](CC(N)=O)C(=O)N[C@@H]([C@@H](C)O)C(=O)N[C@@H](C)C(=O)N[C@@H]([C@@H](C)O)C(=O)N1)[C@@H](C)O)C(=O)N[C@@H](CC(C)C)C(=O)N1CCC[C@H]1C(=O)N1CCC[C@H]1C(=O)N[C@H](C(=O)N[C@@H](CC(N)=O)C(=O)N[C@H](C(=O)NCC(=O)N[C@@H](CO)C(=O)N[C@@H](CC(N)=O)C(=O)N[C@H](C(=O)N1CCC[C@H]1C(N)=O)[C@@H](C)O)C(C)C)[C@@H](C)O [Example 90, N-alpha-[(S)-4-Carboxy-4-(19-carboxynonadecanoylamino)butyryl]-[His1, Glu14, Arg17, Pro37]-pramlintide] ({C20 diacid-γGlu}-HCNTATCATQRLAEFLRHSSNNFGPILPPTNVGSNTP-NH2; disulfide 2-7 (inferred); C-terminus assumed)		
		CC[C@H](C)[C@H](NC(=O)[C@H](CCCCNC(=O)COCCOCCNC(=O)COCCOCCNC(=O)CC[C@H](NC(=O)CCCCCCCCCCCCCCCCC(=O)O)C(=O)O)NC(=O)CNC(=O)[C@H](Cc1ccccc1)NC(=O)[C@H](CC(N)=O)NC(=O)[C@H](CC(N)=O)NC(=O)[C@H](CO)NC(=O)[C@H](CO)NC(=O)[C@H](Cc1c[nH]cn1)NC(=O)[C@H](Cc1c[nH]cn1)NC(=O)[C@H](CC(C)C)NC(=O)[C@H](Cc1ccccc1)NC(=O)[C@H](CCC(=O)O)NC(=O)[C@H](C)NC(=O)[C@H](CC(C)C)NC(=O)[C@H](CCCNC(=N)N)NC(=O)[C@H](CCC(N)=O)NC(=O)[C@@H](NC(=O)[C@H](C)NC(=O)[C@@H]1CSSC[C@H](NC(=O)[C@@H](N)CCCCN)C(=O)N[C@@H](CC(N)=O)C(=O)N[C@@H]([C@@H](C)O)C(=O)N[C@@H](C)C(=O)N[C@@H]([C@@H](C)O)C(=O)N1)[C@@H](C)O)C(=O)N[C@@H](CC(C)C)C(=O)N1CCC[C@H]1C(=O)N1CCC[C@H]1C(=O)N[C@H](C(=O)N[C@@H](CC(N)=O)C(=O)N[C@H](C(=O)NCC(=O)N[C@@H](CO)C(=O)N[C@@H](CC(N)=O)C(=O)N[C@H](C(=O)N[C@@H](Cc1ccc(O)cc1)C(N)=O)[C@@H](C)O)C(C)C)[C@@H](C)O [compound 73] (H-KCNTATCATQRLAEFLHHSSNNFGK([AEEA-AEEA-γGlu-C18 diacid])ILPPTNVGSNTY-NH2; disulfide 2-7 (inferred); N-terminus and C-terminus assumed)	29%	2%
		CC[C@H](C)[C@H](NC(=O)[C@@H]1CCCN1C(=O)CNC(=O)[C@H](Cc1ccccc1)NC(=O)[C@H](CC(N)=O)NC(=O)[C@H](CCC(N)=O)NC(=O)[C@H](CO)NC(=O)[C@H](CO)NC(=O)[C@H](Cc1c[nH]cn1)NC(=O)[C@H](Cc1c[nH]cn1)NC(=O)[C@H](CC(C)C)NC(=O)[C@H](Cc1ccccc1)NC(=O)[C@H](CCC(=O)O)NC(=O)[C@H](C)NC(=O)[C@H](CC(C)C)NC(=O)[C@H](CCCNC(=N)N)NC(=O)[C@H](CCC(N)=O)NC(=O)[C@@H](NC(=O)[C@H](C)NC(=O)[C@@H]1CSSC[C@H](NC(=O)[C@H](CCCCN)NC(=O)CC[C@H](NC(=O)CCCCCCCCCCCCCCCCCCC(=O)O)C(=O)O)C(=O)N[C@@H](CC(N)=O)C(=O)N[C@@H]([C@@H](C)O)C(=O)N[C@@H](C)C(=O)N[C@@H]([C@@H](C)O)C(=O)N1)[C@@H](C)O)C(=O)N[C@@H](CC(C)C)C(=O)N1CCC[C@H]1C(=O)N1CCC[C@H]1C(=O)N[C@H](C(=O)N[C@@H](CC(N)=O)C(=O)N[C@H](C(=O)NCC(=O)N[C@@H](CO)C(=O)N[C@@H](Cc1c[nH]cn1)C(=O)N[C@H](C(=O)N[C@@H](Cc1ccc(O)cc1)C(N)=O)[C@@H](C)O)C(C)C)[C@@H](C)O [compound 117] ({C20 diacid-γGlu}-KCNTATCATQRLAEFLHHSSQNFGPILPPTNVGSHTY-NH2; disulfide 2-7 (inferred); C-terminus assumed)	50%	35%
		CC[C@H](C)[C@H](NC(=O)[C@@H]1CCCN1C(=O)CNC(=O)[C@H](Cc1ccccc1)NC(=O)[C@H](CC(N)=O)NC(=O)[C@H](CC(N)=O)NC(=O)[C@H](CO)NC(=O)[C@H](CO)NC(=O)[C@H](CCCNC(=N)N)NC(=O)[C@H](Cc1c[nH]cn1)NC(=O)[C@H](CC(C)C)NC(=O)[C@H](Cc1ccccc1)NC(=O)[C@H](CCC(=O)O)NC(=O)[C@H](C)NC(=O)[C@H](CC(C)C)NC(=O)[C@H](CCCNC(=N)N)NC(=O)[C@H](CCC(N)=O)NC(=O)[C@@H](NC(=O)[C@H](C)NC(=O)[C@@H]1CSSC[C@H](NC(=O)[C@H](CCCN)NC(=O)[C@@H](CCCNC(=N)N)NC(=O)[C@@H](CCCNC(=N)N)NC(=O)COCCOCCNC(=O)COCCOCCNC(=O)CC[C@H](NC(=O)CCCCCCCCCCCCCCCCC(=O)O)C(=O)O)C(=O)N[C@@H](CC(N)=O)C(=O)N[C@@H]([C@@H](C)O)C(=O)N[C@@H](C)C(=O)N[C@@H]([C@@H](C)O)C(=O)N1)[C@@H](C)O)C(=O)N[C@@H](CC(C)C)C(=O)N1CCC[C@H]1C(=O)N1CCC[C@H]1C(=O)N[C@H](C(=O)N[C@@H](CC(N)=O)C(=O)N[C@H](C(=O)NCC(=O)N[C@@H](CO)C(=O)N[C@@H](CC(N)=O)C(=O)N[C@H](C(=O)N[C@@H](Cc1ccc(O)cc1)C(N)=O)[C@@H](C)O)C(C)C)[C@@H](C)O [compound 120] ({C18 diacid-γGlu-AEEA-AEEA}-[dR][dR][Orn]CNTATCATQRLAEFLHRSSNNFGPILPPTNVGSNTY-NH2; disulfide 4-9 (inferred); C-terminus assumed)	53%	2%
